In patent publication US20070092474A1, “Carnitine salt, preliposome which contains it and dermocosmetic formula for topical use based upon said carnitine salt” (priority 2003, published 2007):
Where “and” joins values, the source holds several entries; their conditions need not be identical. Equal values may be shown once.

Test system: skin blemishes caused by cellulite and localised adiposity
Assay: Liquid crystal contact thermography of the thighs, clinical score of cellulite stage
Format: in vivo, female volunteers
Parameters: key: 9: IV SERIOUS; 8: IV AVERAGE; 7: IV INITIAL; 6: III SERIOUS; 5: III AVERAGE; 4: III INITIAL; 3: II SERIOUS; 2: II AVERAGE; 1: II INITIAL
Conditions: clinical score per volunteer, MEDIA = mean
Experimental: A dermatological test was carried out on 25 female volunteers between 18 and 65 years of age, with the backing of the Department of Physiological and Pharmacological Sciences of the university of Pavia. The investigation aimed to check the modification of three anatomical-physiological parameters, qualifying the unaesthetic-functional aspect connected to the manifestation of so-called cellulite and subcutaneous hypertriglyceridaemia: measurement of the skin folds, measurement of the circumference of the thighs, thermographic skin measurement.
The test stretched out over 60 days with the continual daily application of the aforementioned preparation of cosmetic gel. The measurements were carried out after 15, 30 and 60 days. The detail of the test protocol and of the results obtained is shown hereafter.
25 female volunteers aged between 18 and 65, with the presence of skin blemishes caused by cellulite and localised adiposity, were selected according to the following criteria: good general state of health, absence of skin pathologies, not being under medication, commitment not to vary the normal daily routine, no medical history of atopy.
The samples were tested by uniformly applying them on “Glute SX Glute DJ (Femoris Posto SX Femoris Posto DX Femoris Ant. SX Femoris Ant. DX” every day at least once per day for the entire duration of the test.
At the time of inclusion in the study and during the subsequent checks after 15 days (T15), after 30 days (T30) and after 60 days (T60) of treatment the following instrumental measurements were taken: • plicometry (through a plicometer) • thigh circumference (through a measuring tape broken into millimetres) • contact thermography (through liquid crystal thermographic plates).
For its part, thermography allows the extension and the gravity of the microcirculatory skin damage and, consequently, the subcutaneous damage, to be evaluated based upon the regional skin temperature variations. Such temperature variations reveal the presence of subschemic areas (cold areas, due to regional hypothermia) or of phenomena of capillary-venous stasis (hot areas). The diagnostic properties of thermography are relative to the recognition of maldistribution of microcirculation. In particular, “liquid crystal contact thermography” was used, in which the property of cholesteric liquid crystals (of which the plates are made up) of modifying their spatial arrangement according to the temperature is exploited; each spatial modification corresponds to a different refraction of the light rays which thus assume different colours according to the incidence of the light on the faces of the cholesteric microcrystals: in practice, when the thermographic plates are placed upon the skin of the zone to be investigated, these assume different colourations according to the skin temperature. Conventionally, the thermographic images observed during the course of the different stages of evolution of the Edematous fibrosclerotic panniculopathy from stasis of the lower limbs can be classified in four, or more, thermographic stages; the latter approximately correspond to the gravity of the four istologic stages in which the moments of evolution of the panniculosis are divided.

carnitine hydroxycitrate [carnitine hydroxy citrate]
LEFT THIGH THERMOGRAPHY 1/3 T0: 5 (9×) and 4 (3×) and 7 (4×) and 2 and 6 (7×) and 3
LEFT THIGH THERMOGRAPHY 1/3 T0 (mean): 5.3
LEFT THIGH THERMOGRAPHY 1/3 T15: 5 (9×) and 4 (5×) and 3 (3×) and 7 (2×) and 2 and 6 (5×)
LEFT THIGH THERMOGRAPHY 1/3 T15 (mean): 4.8
LEFT THIGH THERMOGRAPHY 1/3 T30: 2 (7×) and 4 (10×) and 3 (2×) and 6 (3×) and 5 (3×)
LEFT THIGH THERMOGRAPHY 1/3 T30 (mean): 3.7
LEFT THIGH THERMOGRAPHY 1/3 T60: 2 (11×) and 3 (7×) and 4 (4×) and 5 (2×) and 6
LEFT THIGH THERMOGRAPHY 1/3 T60 (mean): 3.0
LEFT THIGH THERMOGRAPHY 2/3 T0: 4 (5×) and 5 (10×) and 3 (3×) and 7 and 2 and 6 (5×)
LEFT THIGH THERMOGRAPHY 2/3 T0 (mean): 4.7
LEFT THIGH THERMOGRAPHY 2/3 T15: 3 (7×) and 4 (11×) and 5 (3×) and 6 (3×) and 2
LEFT THIGH THERMOGRAPHY 2/3 T15 (mean): 4.0
LEFT THIGH THERMOGRAPHY 2/3 T30: 2 (6×) and 3 (12×) and 4 (6×) and 5
LEFT THIGH THERMOGRAPHY 2/3 T30 (mean): 3.1
LEFT THIGH THERMOGRAPHY 2/3 T60: 2 (9×) and 3 (11×) and 4 (4×) and 1
LEFT THIGH THERMOGRAPHY 2/3 T60 (mean): 2.7
LEFT THIGH THERMOGRAPHY 3/3 T0: 3 (3×) and 5 (3×) and 4 (16×) and 2 (2×) and 7
LEFT THIGH THERMOGRAPHY 3/3 T0 (mean): 4.0
LEFT THIGH THERMOGRAPHY 3/3 T15: 3 (7×) and 4 (11×) and 5 (3×) and 2 (4×)
LEFT THIGH THERMOGRAPHY 3/3 T15 (mean): 3.5
LEFT THIGH THERMOGRAPHY 3/3 T30: 2 (7×) and 3 (11×) and 4 (5×) and 1 (2×)
LEFT THIGH THERMOGRAPHY 3/3 T30 (mean): 2.8
LEFT THIGH THERMOGRAPHY 3/3 T60: 1 (3×) and 3 (11×) and 2 (10×) and 4
LEFT THIGH THERMOGRAPHY 3/3 T60 (mean): 2.4
RIGHT THIGH THERMOGRAPHY 1/3 T0: 5 (10×) and 4 (3×) and 7 (3×) and 3 (2×) and 6 (6×) and 8
RIGHT THIGH THERMOGRAPHY 1/3 T0 (mean): 5.3
RIGHT THIGH THERMOGRAPHY 1/3 T15: 5 (9×) and 4 (6×) and 7 (3×) and 3 (2×) and 6 (5×)
RIGHT THIGH THERMOGRAPHY 1/3 T15 (mean): 5.0
RIGHT THIGH THERMOGRAPHY 1/3 T30: 2 (7×) and 4 (9×) and 3 (2×) and 5 (4×) and 6 (2×) and 7
RIGHT THIGH THERMOGRAPHY 1/3 T30 (mean): 3.8
RIGHT THIGH THERMOGRAPHY 1/3 T60: 2 (11×) and 3 (6×) and 4 (5×) and 5 (2×) and 6
RIGHT THIGH THERMOGRAPHY 1/3 T60 (mean): 3.0
RIGHT THIGH THERMOGRAPHY 2/3 T0: 4 (6×) and 5 (11×) and 7 and 3 (3×) and 6 (4×)
RIGHT THIGH THERMOGRAPHY 2/3 T0 (mean): 4.8
RIGHT THIGH THERMOGRAPHY 2/3 T15: 3 (5×) and 4 (12×) and 5 (4×) and 6 (3×) and 2
RIGHT THIGH THERMOGRAPHY 2/3 T15 (mean): 4.1
RIGHT THIGH THERMOGRAPHY 2/3 T30: 2 (4×) and 3 (13×) and 4 (7×) and 5
RIGHT THIGH THERMOGRAPHY 2/3 T30 (mean): 3.2
RIGHT THIGH THERMOGRAPHY 2/3 T60: 2 (8×) and 3 (12×) and 4 (4×) and 1
RIGHT THIGH THERMOGRAPHY 2/3 T60 (mean): 2.8
RIGHT THIGH THERMOGRAPHY 3/3 T0: 3 (4×) and 5 (4×) and 4 (15×) and 2 and 7
RIGHT THIGH THERMOGRAPHY 3/3 T0 (mean): 4.0
RIGHT THIGH THERMOGRAPHY 3/3 T15: 3 (7×) and 4 (11×) and 5 (3×) and 2 (4×)
RIGHT THIGH THERMOGRAPHY 3/3 T15 (mean): 3.5
RIGHT THIGH THERMOGRAPHY 3/3 T30: 2 (7×) and 3 (10×) and 4 (7×) and 1
RIGHT THIGH THERMOGRAPHY 3/3 T30 (mean): 2.9
RIGHT THIGH THERMOGRAPHY 3/3 T60: 1 (3×) and 3 (12×) and 2 (9×) and 4
RIGHT THIGH THERMOGRAPHY 3/3 T60 (mean): 2.4
